From the supplement of paper PMC10307832

How the values were obtained:
Test in all cases: relative viability (nuclei count vs DMSO), 5 days (fraction); higher = more cells survive
Doramapimod + Olaparib = compound: Cc1ccc(-n2nc(C(C)(C)C)cc2NC(=O)Nc2ccc(OCCN3CCOCC3)c3ccccc23)cc1 [Doramapimod] + O=C(c1cc(Cc2n[nH]c(=O)c3ccccc23)ccc1F)N1CCN(C(=O)C2CC2)CC1 [Olaparib] (partner 8 µM)
How it was run: (§1)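 Values are medians from duplicate plates. Each reflects relative viability, defined as the nuclei count of treated wells over that of vehicle wells. Lung cancer cell lines in 1536-well plates were pin-tool dosed one day after seeding with one drug alone or with a fixed anchor-drug dose plus five library-drug doses (not always all listed) in √10 steps, then fixed, stained and imaged at 4× after 5 days.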

RAF265 + Olaparib = compound: Cn1c(Nc2ccc(C(F)(F)F)cc2)nc2cc(Oc3ccnc(-c4ncc(C(F)(F)F)[nH]4)c3)ccc21 [RAF265] + O=C(c1cc(Cc2n[nH]c(=O)c3ccccc23)ccc1F)N1CCN(C(=O)C2CC2)CC1 [Olaparib] (partner 8 µM)
How it was run: as §1

Doramapimod + OSI-027 = compound: Cc1ccc(-n2nc(C(C)(C)C)cc2NC(=O)Nc2ccc(OCCN3CCOCC3)c3ccccc23)cc1 [Doramapimod] + COc1cccc2cc(-c3nc([C@H]4CC[C@H](C(=O)O)CC4)n4ncnc(N)c34)[nH]c12 [OSI-027] (partner 0.5 µM)
How it was run: as §1

RAF265 + Pictilisib = compound: Cn1c(Nc2ccc(C(F)(F)F)cc2)nc2cc(Oc3ccnc(-c4ncc(C(F)(F)F)[nH]4)c3)ccc21 [RAF265] + CS(=O)(=O)N1CCN(Cc2cc3nc(-c4cccc5[nH]ncc45)nc(N4CCOCC4)c3s2)CC1 [Pictilisib] (partner 1 µM)
How it was run: as §1

| Cell Line | relative viability (Doramapimod + Olaparib; first compound 0.02 µM) | relative viability (Doramapimod + Olaparib; first compound 0.06325 µM) | relative viability (Doramapimod + Olaparib; first compound 0.2 µM) | relative viability (Doramapimod + Olaparib; first compound 2 µM) | relative viability (RAF265 + Olaparib; first compound 0.01 µM) | relative viability (RAF265 + Olaparib; first compound 0.03162 µM) | relative viability (RAF265 + Olaparib; first compound 0.1 µM) | relative viability (RAF265 + Olaparib; first compound 0.3162 µM) | relative viability (RAF265 + Olaparib; first compound 1 µM) | relative viability (Doramapimod + OSI-027; first compound 0.02 µM) | relative viability (Doramapimod + OSI-027; first compound 0.06325 µM) | relative viability (Doramapimod + OSI-027; first compound 0.2 µM) | relative viability (Doramapimod + OSI-027; first compound 2 µM) | relative viability (RAF265 + Pictilisib; first compound 0.01 µM) | relative viability (RAF265 + Pictilisib; first compound 0.03162 µM) | relative viability (RAF265 + Pictilisib; first compound 0.1 µM) | relative viability (RAF265 + Pictilisib; first compound 0.3162 µM) | relative viability (RAF265 + Pictilisib; first compound 1 µM) | relative viability (Doramapimod + Olaparib; first compound 0.6325 µM) | relative viability (Doramapimod + OSI-027; first compound 0.6325 µM) |
| --- | --- | --- | --- | --- | --- | --- | --- | --- | --- | --- | --- | --- | --- | --- | --- | --- | --- | --- | --- | --- |
| A-427 | 0.86 | 0.85 | 0.838 | 0.738 | 0.831 | 0.604 | 0.712 | 0.459 | 0.29 | 0.435 | 0.498 | 0.578 | 0.402 | 0.738 | 0.531 | 0.797 | 0.395 | 0.15 | – | – |
| SW 1573 | 0.446 | 0.425 | 0.456 | 0.433 | 0.474 | 0.388 | 0.304 | 0.28 | 0.248 | 0.585 | 0.514 | 0.485 | 0.352 | 0.597 | 0.445 | 0.542 | 0.399 | 0.221 | 0.546 | 0.586 |
| NCI-H322M | 0.849 | 0.827 | 0.864 | 0.884 | 0.878 | 0.689 | 0.632 | 0.53 | 0.344 | 0.577 | 0.579 | 0.562 | 0.527 | 0.48 | 0.487 | 0.406 | 0.308 | 0.252 | 0.857 | 0.522 |
| ABC-1 | 0.851 | 0.68 | 0.698 | 0.935 | 0.919 | 0.649 | 0.952 | 1.07 | 0.791 | 0.613 | 0.451 | 0.433 | 0.51 | 0.808 | 0.58 | 0.608 | 0.525 | 0.458 | 0.983 | 0.655 |
